Data published in the supplement of paper PMC4862054.

Each molecule was assayed on HDQ-P1 (assay: normalised response (% of control), CellTiter-Glo; higher = more viable cells (100 = DMSO, 0 = benzethonium chloride kill control)). Conditions: incubation time: 72 h.
Procedure, shortened: (§1)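 Each value is the plate-normalised signal at one concentration of the series. Breast cancer cell lines (20 µl suspension) were incubated 72 h in 384-well plates with compound at 5 concentrations in 10-fold steps over a compound-specific 10,000-fold range. CellTox Green and then CellTiter-Glo were read, and each plate was scaled to 0.1 % DMSO (100) and a positive kill control (0).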

SMILES	normalised response [%]
CC(C)(C)c1nc(-c2cccc(NS(=O)(=O)c3c(F)cccc3F)c2F)c(-c2ccnc(N)n2)s1 [Dabrafenib] (2.5 nM)	105
Nc1ccn([C@@H]2O[C@H](CO)[C@@H](O)C2(F)F)c(=O)n1 [Gemcitabine] (1 nM)	99.3
O=C(O)CNC(=O)c1c(O)c2ccccc2n(Cc2ccccc2)c1=O [IOX-2] (50 nM)	95.7
CC(=O)[C@]1(O)Cc2c(O)c3c(c(O)c2[C@@H](O[C@H]2C[C@H](N)[C@H](O)[C@H](C)O2)C1)C(=O)c1ccccc1C3=O [Idarubicin] (1 nM)	99.7
C/C(=C\c1csc(C)n1)[C@@H]1C[C@@H]2O[C@]2(C)CCC[C@H](C)[C@H](O)[C@@H](C)C(=O)C(C)(C)[C@@H](O)CC(=O)N1 [Ixabepilone] (1 nM)	98.5
CN(C)C(=N)NC(=N)N [Metformin] (100 nM)	99.4
CC[C@H](CO)Nc1nc(NCc2ccccc2)c2ncn(C(C)C)c2n1 [Seliciclib] (10 nM)	94.5
O=[N+]([O-])c1ccc2c(c1)S(=O)(=O)C=C2 [Stattic] (50 nM)	100
O=C(CCCCCCC(=O)Nc1ccccc1)NO [Vorinostat] (10 nM)	94.6

What follows are molecules tested on MDA-MB-453 in the same assay as above. Conditions: incubation time: 72 h.
Procedure, shortened: as §1

SMILES	normalised response [%]
CCn1c(C(=O)N(C2CC2)C2CC2)cc2c3c(ncn3C)c(Nc3cc(C)n(C)n3)nc21 (1 nM)	89.3
CCn1c(C(=O)N(C2CC2)C2CC2)cc2c3c(ncn3C)c(Nc3cc(C)n(C)n3)nc21 (10 nM)	93.3
COc1ccc(S(=O)(=O)Nc2cccnc2Nc2ccc(O)cc2)cc1 [ABT-751] (10 nM)	105
CN[C@@H](C)C(=O)N[C@H]1CN(C(=O)CC(C)C)CC[C@H]2CC[C@@H](C(=O)NC(c3ccccc3)c3ccccc3)N2C1=O [AT-406] (1 nM)	103
CN[C@@H](C)C(=O)N[C@H]1CN(C(=O)CC(C)C)CC[C@H]2CC[C@@H](C(=O)NC(c3ccccc3)c3ccccc3)N2C1=O [AT-406] (10 nM)	89.3
Cc1cc(Nc2nc(N[C@@H](C)c3ncc(F)cn3)ncc2Cl)[nH]n1 [AZD1480] (1 nM)	103
CNC(=O)c1ccccc1Sc1ccc2c(/C=C/c3ccccn3)n[nH]c2c1 [Axitinib] (10 nM)	107
CC(O)(CS(=O)(=O)c1ccc(F)cc1)C(=O)Nc1ccc(C#N)c(C(F)(F)F)c1 (stereo not drawn) [Bicalutamide] (10 nM)	100
CCNC(=O)CCC/C=C\C[C@@H]1[C@@H](/C=C/[C@@H](O)CCc2ccccc2)[C@H](O)C[C@@H]1O [Bimatoprost] (5.5 nM)	96.8
COc1cc(Nc2c(C#N)cnc3cc(OCCCN4CCN(C)CC4)c(OC)cc23)c(Cl)cc1Cl [Bosutinib] (10 nM)	104
CCN(CC)CCCC(C)Nc1ccnc2cc(Cl)ccc12 (stereo not drawn) [Chloroquine] (10 nM)	103
CC1(COc2ccc3c(c2)ncn3-c2ccc3cccc(N4CCC(N)CC4)c3n2)COC1 [Crenolanib] (10 nM)	94.6
CC(C)(C)c1nc(-c2cccc(NS(=O)(=O)c3c(F)cccc3F)c2F)c(-c2ccnc(N)n2)s1 [Dabrafenib] (2.5 nM)	111
Nc1ccn([C@@H]2O[C@H](CO)[C@@H](O)C2(F)F)c(=O)n1 [Gemcitabine] (1 nM)	101
O=C(O)CNC(=O)c1c(O)c2ccccc2n(Cc2ccccc2)c1=O [IOX-2] (50 nM)	86.3
CC(=O)[C@]1(O)Cc2c(O)c3c(c(O)c2[C@@H](O[C@H]2C[C@H](N)[C@H](O)[C@H](C)O2)C1)C(=O)c1ccccc1C3=O [Idarubicin] (1 nM)	101
C/C(=C\c1csc(C)n1)[C@@H]1C[C@@H]2O[C@]2(C)CCC[C@H](C)[C@H](O)[C@@H](C)C(=O)C(C)(C)[C@@H](O)CC(=O)N1 [Ixabepilone] (1 nM)	107
CN(C)C(=N)NC(=N)N [Metformin] (100 nM)	76.8
CC[C@H](CO)Nc1nc(NCc2ccccc2)c2ncn(C(C)C)c2n1 [Seliciclib] (10 nM)	104
O=[N+]([O-])c1ccc2c(c1)S(=O)(=O)C=C2 [Stattic] (50 nM)	97.1
O=C(CCCCCCC(=O)Nc1ccccc1)NO [Vorinostat] (10 nM)	90.3

Each molecule was assayed on HCC1599 in the same assay as above. Conditions: incubation time: 72 h.
Procedure, shortened: as §1

SMILES	normalised response [%]
CCn1c(C(=O)N(C2CC2)C2CC2)cc2c3c(ncn3C)c(Nc3cc(C)n(C)n3)nc21 (1 nM)	96.7
CCn1c(C(=O)N(C2CC2)C2CC2)cc2c3c(ncn3C)c(Nc3cc(C)n(C)n3)nc21 (10 nM)	82.5
COc1ccc(S(=O)(=O)Nc2cccnc2Nc2ccc(O)cc2)cc1 [ABT-751] (10 nM)	124
CN[C@@H](C)C(=O)N[C@H]1CN(C(=O)CC(C)C)CC[C@H]2CC[C@@H](C(=O)NC(c3ccccc3)c3ccccc3)N2C1=O [AT-406] (1 nM)	104
CN[C@@H](C)C(=O)N[C@H]1CN(C(=O)CC(C)C)CC[C@H]2CC[C@@H](C(=O)NC(c3ccccc3)c3ccccc3)N2C1=O [AT-406] (10 nM)	99.7
Cc1cc(Nc2nc(N[C@@H](C)c3ncc(F)cn3)ncc2Cl)[nH]n1 [AZD1480] (1 nM)	102
CNC(=O)c1ccccc1Sc1ccc2c(/C=C/c3ccccn3)n[nH]c2c1 [Axitinib] (10 nM)	111
CC(O)(CS(=O)(=O)c1ccc(F)cc1)C(=O)Nc1ccc(C#N)c(C(F)(F)F)c1 (stereo not drawn) [Bicalutamide] (10 nM)	106
CCNC(=O)CCC/C=C\C[C@@H]1[C@@H](/C=C/[C@@H](O)CCc2ccccc2)[C@H](O)C[C@@H]1O [Bimatoprost] (5.5 nM)	96.9
COc1cc(Nc2c(C#N)cnc3cc(OCCCN4CCN(C)CC4)c(OC)cc23)c(Cl)cc1Cl [Bosutinib] (10 nM)	91.1
CCN(CC)CCCC(C)Nc1ccnc2cc(Cl)ccc12 (stereo not drawn) [Chloroquine] (10 nM)	90.9
CC1(COc2ccc3c(c2)ncn3-c2ccc3cccc(N4CCC(N)CC4)c3n2)COC1 [Crenolanib] (10 nM)	96.2
CC(C)(C)c1nc(-c2cccc(NS(=O)(=O)c3c(F)cccc3F)c2F)c(-c2ccnc(N)n2)s1 [Dabrafenib] (2.5 nM)	99.8
Nc1ccn([C@@H]2O[C@H](CO)[C@@H](O)C2(F)F)c(=O)n1 [Gemcitabine] (1 nM)	109
O=C(O)CNC(=O)c1c(O)c2ccccc2n(Cc2ccccc2)c1=O [IOX-2] (50 nM)	94.1
CC(=O)[C@]1(O)Cc2c(O)c3c(c(O)c2[C@@H](O[C@H]2C[C@H](N)[C@H](O)[C@H](C)O2)C1)C(=O)c1ccccc1C3=O [Idarubicin] (1 nM)	91.1
C/C(=C\c1csc(C)n1)[C@@H]1C[C@@H]2O[C@]2(C)CCC[C@H](C)[C@H](O)[C@@H](C)C(=O)C(C)(C)[C@@H](O)CC(=O)N1 [Ixabepilone] (1 nM)	85.5
CN(C)C(=N)NC(=N)N [Metformin] (100 nM)	97.6
